Columns and labels:
skin fibrosis = test: Morphology of skin biopsy specimens, H&E staining of paraffin embedded sections; format: in vivo, human
Method: Patients seen at the Northwestern Scleroderma Program who met American College of Rheumatology criteria for SSc with a mRSS≧16 and would be receiving mycophenolate mofetil for the indication of progressive skin tightening were assessed. All patients provided written informed consent in accordance with the Institutional Review Board Guidelines of Northwestern University. Patients underwent a standardized physical exam, including mRSS performed by one clinician at study entry (prior to treatment) and at 6 months and 12 months post MMF initiation. […] from clinically involved skin (forearm) and clinically uninvolved skin (back) from the non-dominant side of the body. Two biopsies (one from forearm and back) were placed in RNAlater® (Applied Biosystems, Ambion®, Carlsbad, Calif., U.S.A.) and used for DNA microarray analysis and the other biopsy was placed in 10% neutral buffered formalin and used for histological analyses.
To confirm the physical exam finding of softened skin in MMF-responders, the morphology of skin biopsy specimens was examined using routine H&E staining of paraffin embedded sections.

[1] = SSc patients; cited from earlier work

Compound	extent of skin fibrosis, pre- vs post-treatment biopsies (skin fibrosis; MMF responders)	skin fibrosis and dermal appendages (skin fibrosis; MMF-nonresponder)	clinical response [1]
COc1c(C)c2c(c(O)c1C/C=C(\C)CCC(=O)OCCN1CCOCC1)C(=O)OC2 [MMF, mycophenolate mofetil]	clear differences in the extent of fibrosis between pre- and post-treatment biopsies in responders	greater degree in skin fibrosis and a further loss of the normal dermal appendages	
rituximab			no clinical benefit

Reference: patent US20140066324A1, “GENE EXPRESSION SIGNATURE IN SKIN PREDICTS RESPONSE TO MYCOPHENOLATE MOFETIL” (NORTHWESTERN UNIVERSITY, priority 2011, published 2014)
